What was measured:
[1] = tested on: Normal human fibroblasts [CCD45SK (ATCC CRL 1506)]; assay: Response to TGF-β1: TIMP production by normal human fibroblasts (Test Examples 12-13); assay type: cell-based; settings: Test Example 12, 1 mM, 6 days, 3 ng/ml TGF-β1, 3 days
Protocol: Normal human fibroblasts [CCD45SK (ATCC CRL 1506) as prepared from the skin of a person] were suspended at a cell density of 1×10^5 cells/ml in the MEM medium, comprising 10% (V/V) FBS and 1% (V/V) non-essential amino acids (produced by Dai-Nippon Pharmaceutical Co.). The suspended cells were seeded into each well of a 12-well plate in an amount of 0.8 ml/well (corresponding to 8×10^4 cells/well) and incubated in a saturated aqueous vapor with 5% CO2 at 37° C.

healthy panelists = settings: in vivo
Protocol: Aqueous solutions of N-methyl-L-serine, ethanolamine and N-methylethanolamine that had been adjusted to have a pH 7 with hydrochloric acid were used as test samples. These test samples were applied to 19 healthy panelists.
One hour and 24 hours after the removal of the patch, the condition of the skin of each panelist was observed.

male ICR mice = assay: Acute Toxicity Test; settings: oral, 5 g/kg of body weight; observed for 7 days
Protocol: Water, or an aqueous solution of N-Methyl-L-Serine (this was prepared to have a concentration of 5 g/kg of body weight of test animal, as a sample) was orally administered to male ICR mice (5 weeks-age; body weight, 24 to 28 g; 5 mice in one group), in an amount of […] of body weight.

CN[C@@H](CO)C(=O)O [Example 1, N-methyl-L-serine]
activity at 1000 µM ([1]; Homo sapiens, Fibroblast, control = 100, read-out: Response to TGF-β1 Increment): 240% | TIMP Production ([1]; mean ± SD, n = 3): 240 ± 21 unit/ml | panelists with erythema (healthy panelists): only one panelists had minor erythema | deaths of mice (male ICR mice): No mice of the test group to which N-Methyl-L-Serine was administered died

From patent US6008188A, “Cytokine potentiator and pharmaceutical formulation for cytokine administration” (Kanebo Limited, priority 1994, dated 1999)
